# Experimental data taken from patent US10428080B2, “TBK/IKK inhibitor compounds and uses thereof” (Merck Patent GmbH, priority 2015, dated 2019).
# Structures can show the parent of a compound that is named as a salt. Where two headings read alike, the source gives them in different places.
# Key:
# [1] = molecular target: T1, TBK1 (Homo sapiens, UniProt Q9UHD2); assay: TBK Biochemical Assay; settings: read-out: TBK1 IC50
# T1 sequence (Q9UHD2 1-729): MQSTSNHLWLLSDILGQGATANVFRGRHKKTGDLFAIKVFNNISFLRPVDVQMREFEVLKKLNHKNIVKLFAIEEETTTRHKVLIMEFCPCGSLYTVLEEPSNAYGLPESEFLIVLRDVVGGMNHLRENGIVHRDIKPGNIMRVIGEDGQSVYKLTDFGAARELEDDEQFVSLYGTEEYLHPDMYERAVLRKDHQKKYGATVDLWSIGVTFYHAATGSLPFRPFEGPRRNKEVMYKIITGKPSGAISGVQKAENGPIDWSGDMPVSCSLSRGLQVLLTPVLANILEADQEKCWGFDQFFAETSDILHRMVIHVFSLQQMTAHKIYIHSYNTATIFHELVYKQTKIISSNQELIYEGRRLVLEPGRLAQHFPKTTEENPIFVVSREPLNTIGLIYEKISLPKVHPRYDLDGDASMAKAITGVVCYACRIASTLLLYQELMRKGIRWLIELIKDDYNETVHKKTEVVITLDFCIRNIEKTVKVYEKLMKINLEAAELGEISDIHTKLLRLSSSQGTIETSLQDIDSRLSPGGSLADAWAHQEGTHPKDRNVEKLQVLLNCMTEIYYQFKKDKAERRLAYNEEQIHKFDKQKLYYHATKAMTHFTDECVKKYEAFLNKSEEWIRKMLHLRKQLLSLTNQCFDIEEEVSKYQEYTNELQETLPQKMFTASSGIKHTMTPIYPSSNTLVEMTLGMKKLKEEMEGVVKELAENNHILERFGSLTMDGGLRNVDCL
# Procedure, shortened: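 Caliper LabChip mobility-shift readout of substrate and product after 90 min of TBK1 reaction at 25° C and stop-buffer addition. Compounds tested in 1:4 serial dilution over 10 points from 30 uM final at 1% DMSO; staurosporine 10 uM final defines full inhibition.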
# [2] = molecular target: T2, IKKε (Homo sapiens, UniProt Q14164); assay: IKKe Biochemical Assay; settings: read-out: IKKε IC50
# T2 sequence (Q14164 1-716): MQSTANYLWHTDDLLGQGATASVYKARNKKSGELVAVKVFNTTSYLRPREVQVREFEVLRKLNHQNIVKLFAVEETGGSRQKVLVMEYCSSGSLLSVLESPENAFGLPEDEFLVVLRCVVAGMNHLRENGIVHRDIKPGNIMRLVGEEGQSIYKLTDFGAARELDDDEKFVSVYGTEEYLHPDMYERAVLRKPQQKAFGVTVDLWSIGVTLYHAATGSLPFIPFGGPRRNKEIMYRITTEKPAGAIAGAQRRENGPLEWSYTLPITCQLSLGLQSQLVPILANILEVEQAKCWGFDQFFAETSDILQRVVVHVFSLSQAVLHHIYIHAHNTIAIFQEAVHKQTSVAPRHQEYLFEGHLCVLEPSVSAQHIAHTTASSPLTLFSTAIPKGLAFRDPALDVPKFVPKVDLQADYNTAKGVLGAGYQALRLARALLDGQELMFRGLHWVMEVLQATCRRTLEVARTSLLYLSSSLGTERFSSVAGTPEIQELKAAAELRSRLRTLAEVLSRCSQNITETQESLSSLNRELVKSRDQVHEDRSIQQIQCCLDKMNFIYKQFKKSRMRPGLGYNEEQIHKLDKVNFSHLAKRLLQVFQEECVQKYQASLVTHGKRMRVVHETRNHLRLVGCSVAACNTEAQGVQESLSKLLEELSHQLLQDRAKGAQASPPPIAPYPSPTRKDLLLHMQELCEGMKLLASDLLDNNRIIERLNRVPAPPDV
# Procedure, shortened: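 Activity was measured as mobility-shift separation of phosphorylated from unphosphorylated substrate on a LabChip EZ Reader. Compound was titrated from 30 uM final in 10 points, 1:4 steps, with 1% DMSO, and enzyme plus substrate reacted 90 min at 25° C before stop buffer. Control wells held 10 uM staurosporine.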
# [3] = test system: phosphorylation of the IRF-3 protein in MDA-MB-468 cells; assay: pIRF3 immunocytochemistry cell based assay; settings: Homo sapiens
# Procedure, shortened: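 After 2 h stimulation with Poly(I:C) (10 ug/ml), following 1 h compound pre-treatment (10-point, 3-fold dilution, top 10 uM), MDA-MB-468 cells were fixed and stained with anti-pIRF3 antibody. pIRF3 fluorescence was normalized to PI staining or cell count on an Acumen cytometer. IC50 curves were derived from this.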
# [4] = MDA-MB-468 cells, Poly(I:C) stimulation, read-out: pIRF3 IC50
IC50 [1] [nM],IC50 [2] [nM],"IC50 [3, 4] [nM]",Structure (SMILES),"IC50 ([3]; MDA-MB-468, read-out: pIRF3 IC50) [nM]"
100 to 1000,100 to 1000,1000 to 5000,"CN(C)C(=O)c1ccc(-c2cc3nccc(-c4ccc(NC5CCOC6(CC6)C5)c(C#N)c4)c3o2)cc1 (stereo not drawn) [Compound 286, 4-[7-[3-cyano-4-([4-oxaspiro[2.5]octan-7-yl]amino)phenyl]furo[3,2-b]pyridin-2-yl]-N,N-dimethylbenzamide]",
< 100,< 100,100 to 1000,"COc1cc(C(=O)N(C)C)ccc1-c1cc2nccc(-c3ccc(OC4CCOC5(CC5)C4)c(C#N)c3)c2o1 (stereo not drawn) [Compound 290, 4-[7-(3-cyano-4-[4-oxaspiro[2.5]octan-7-yloxy]phenyl)furo[3,2-b]pyridin-2-yl]-3-methoxy-N,N-dimethylbenzamide]",
100 to 1000,100 to 1000,100 to 1000,"COc1cc(C(=O)N(C)C)ccc1-c1cc2nccc(-c3ccc(C4(N5CCOCC5)CC4)c(C#N)c3)c2o1 [Compound 292, 4-(7-[3-cyano-4-[1-(morpholin-4-yl)cyclopropyl]phenyl]furo[3,2-b]pyridin-2-yl)-3-methoxy-N,N-dimethylbenzamide hydrochloride]",
100 to 1000,< 100,1000 to 5000,"CN(C)C(=O)c1cc(F)c(-c2cc3nccc(-c4ccc(NC5CCOCC5)c(C#N)c4)c3o2)c(F)c1 [Compound 295, 4-(7-[3-cyano-4-[(oxan-4-yl)amino]phenyl]furo[3,2-b]pyridin-2-yl)-3,5-difluoro-N,N-dimethylbenzamide hydrochloride]",
< 100,< 100,100 to 1000,"COc1cc(C(=O)N(C)CCO)ccc1-c1cc2ncc(F)c(-c3ccc(NC4CCOCC4)c(C#N)c3)c2o1 [Compound 296, 4-(7-[3-cyano-4-[(oxan-4-yl)amino]phenyl]-6-fluorofuro[3,2-b]pyridin-2-yl)-N-(2-hydroxyethyl)-3-methoxy-N-methylbenzamide]",
< 100,< 100,100 to 1000,"COc1cc(C(=O)N(C)CCO)ccc1-c1cc2ncc(F)c(-c3ccc(OC4CCOCC4)c(C#N)c3)c2o1 [Compound 297, 4-[7-[3-cyano-4-(oxan-4-yloxy)phenyl]-6-fluorofuro[3,2-b]pyridin-2-yl]-N-(2-hydroxyethyl)-3-methoxy-N-methylbenzamide]",
< 100,< 100,100 to 1000,"COc1cc(C(=O)N(C)C)ccc1-c1cc2ncc(F)c(-c3ccc(OC4CCOCC4)c(C#N)c3)c2o1 [Compound 298, 4-[7-[3-cyano-4-(oxan-4-yloxy)phenyl]-6-fluorofuro[3,2-b]pyridin-2-yl]-3-methoxy-N,N-dimethylbenzamide]",
< 100,< 100,100 to 1000,"COc1cc(C(=O)N(C)C)ccc1-c1cc2ncc(F)c(-c3ccc(NC4CCOCC4)c(C#N)c3)c2o1 [Compound 299, 4-(7-[3-cyano-4-[(oxan-4-yl)amino]phenyl]-6-fluorofuro[3,2-b]pyridin-2-yl)-3-methoxy-N,N-dimethylbenzamide]",
100 to 1000,100 to 1000,1000 to 5000,"CN(C)C(=O)c1ccc(-c2cc3ncc(F)c(-c4ccc(NC5CCOCC5)c(C#N)c4)c3o2)c(F)c1 [Compound 300, 4-(7-[3-cyano-4-[(oxan-4-yl)amino]phenyl]-6-fluorofuro[3,2-b]pyridin-2-yl)-3-fluoro-N,N-dimethylbenzamide]",
< 100,< 100,1000 to 5000,"CN(C)C(=O)c1ccc(-c2cc3ncc(F)c(-c4ccc(OC5CCOCC5)c(C#N)c4)c3o2)c(F)c1 [Compound 301, 4-[7-[3-cyano-4-(oxan-4-yloxy)phenyl]-6-fluorofuro[3,2-b]pyridin-2-yl]-3-fluoro-N,N-dimethylbenzamide]",
< 100,< 100,100 to 1000,"CN(CCO)C(=O)c1ccc(-c2cc3ncc(F)c(-c4ccc(OC5CCOCC5)c(C#N)c4)c3o2)c(F)c1 [Compound 302, 4-[7-[3-cyano-4-(oxan-4-yloxy)phenyl]-6-fluorofuro[3,2-b]pyridin-2-yl]-3-fluoro-N-(2-hydroxyethyl)-N-methylbenzamide]",
100 to 1000,100 to 1000,100 to 1000,"CN(CCO)C(=O)c1ccc(-c2cc3ncc(F)c(-c4ccc(NC5CCOCC5)c(C#N)c4)c3o2)c(F)c1 [Compound 303, 4-(7-[3-cyano-4-[(oxan-4-yl)amino]phenyl]-6-fluorofuro[3,2-b]pyridin-2-yl)-3-fluoro-N-(2-hydroxyethyl)-N-methylbenzamide]",
100 to 1000,100 to 1000,1000 to 5000,"COc1cc(C(=O)N(C)CCO)ccc1-c1cc2ncc(Cl)c(-c3ccc(OC4CCOCC4)c(C#N)c3)c2o1 [Compound 304, 4-[6-chloro-7-[3-cyano-4-(oxan-4-yloxy)phenyl]furo[3,2-b]pyridin-2-yl]-N-(2-hydroxyethyl)-3-methoxy-N-methylbenzamide]",
< 100,< 100,100 to 1000,"COc1nc(C(=O)N(C)C)ccc1-c1cc2nccc(-c3ccc(N4CC[C@@H](F)C4)c(C#N)c3)c2o1 [Compound 313, 5-{7-[3-Cyano-4-((R)-3-fluoro-pyrrolidin-1-yl)-phenyl]-furo[3,2-b]pyridin-2-yl}-6-methoxy-pyridine-2-carboxylic acid dimethylamide]",
< 100,< 100,100 to 1000,"COc1nc(C(=O)N(C)C)ccc1-c1cc2nccc(-c3ccc(N4CC[C@H](F)C4)c(C#N)c3)c2o1 [Compound 314, 5-{7-[3-Cyano-4-((S)-3-fluoro-pyrrolidin-1-yl)-phenyl]-furo[3,2-b]pyridin-2-yl}-6-methoxy-pyridine-2-carboxylic acid dimethylamide]",
< 100,< 100,100 to 1000,"COc1cc(C(=O)N(C)C)cnc1-c1cc2nccc(-c3ccc(OC4CCOCC4)c(C#N)n3)c2o1 [Compound 316, 6-[7-[6-cyano-5-(oxan-4-yloxy)pyridin-2-yl]furo[3,2-b]pyridin-2-yl]-5-methoxy-N,N-dimethylpyridine-3-carboxamide]",
< 100,< 100,100 to 1000,"COc1cc(C(=O)N(C)C)cnc1-c1cc2ncc(F)c(-c3ccc(OC4CCOCC4)c(C#N)c3)c2o1 [Compound 317, 6-(7-(3-cyano-4-(tetrahydro-2H-pyran-4-yloxy)phenyl)-6-fluorofuro[3,2-b]pyridin-2-yl)-5-methoxy-N,N-dimethylnicotinamide]",
< 100,< 100,100 to 1000,"COc1cc(C(=O)N(C)CCO)cnc1-c1cc2nccc(-c3ccc(NC4CCOCC4)c(C#N)c3)c2o1 [Compound 318, 6-(7-(3-cyano-4-(tetrahydro-2H-pyran-4-ylamino)phenyl)furo[3,2-b]pyridin-2-yl)-N-(2-hydroxyethyl)-5-methoxy-N-methylnicotinamide]",

Structure (SMILES),IC50 [1] [nM],IC50 [2] [nM],"IC50 [3, 4] [nM]","IC50 ([3]; MDA-MB-468, read-out: pIRF3 IC50) [nM]"
"COc1cc(C(=O)N(C)C)cnc1-c1cc2nccc(-c3ccc(NC4CCOCC4)c(C#N)n3)c2o1 [Compound 315, 6-(7-[6-cyano-5-[(oxan-4-yl)amino]pyridin-2-yl]furo[3,2-b]pyridin-2-yl)-5-methoxy-N,N-dimethylpyridine-3-carboxamide hydrochloride]",< 100,< 100,,100 to 1000
